Assay results from article PMC7407272, “Induction of Lysosome Membrane Permeabilization as a Therapeutic Strategy to Target Pancreatic Cancer Stem Cells” (Cancers, 2020).

How the values were obtained:
Pharmacokinetic study = type: in vivo; conditions: BALB/c mice
Experimental: Female BABL/c mice, 10 weeks old were used (n = 3 per time point). Compound 2 was formulated in 0.9% NaCl solution for both oral and intravenous (i.v.) injections. Plasma samples were collected following a single i.v. or oral administration of 8 mg/kg at 0.08, 0.16, 0.25, 0.5, 1, 4, 8 and 24 h. The extraction of Cpd 2 from plasma was achieved by solid phase extraction followed by high performance liquid chromatography/tandem mass spectrometry (Agilent 1100, Applied Biosystems API2000) analysis. The amount of inhibitor and the internal standard in each mouse plasma sample were quantified based on calibration curves generated using standards of known concentrations of compound. This assay method was sufficiently accurate for the quantification of Cpd 2 with a limit of detection (LOD) and a low limit of quantification (LLOQ) of 5 ng/mL. Pharmacokinetic parameters were estimated using WinNonlin Version 5.2 software (Pharsight Corp., Mountain View, CA, USA), by fitting both the experimental i.v and oral data to a bicompartimental model.

PFPK5(P.falciparum) = target: T1, PFPK5(P.falciparum) (Plasmodium falciparum, UniProt P61075); assay: KINOMEscan; type: binding; conditions: read-out: % Ctrl
T1 construct: purchased DiscoveRx KINOMEscan
T1 sequence (P61075 whole entry): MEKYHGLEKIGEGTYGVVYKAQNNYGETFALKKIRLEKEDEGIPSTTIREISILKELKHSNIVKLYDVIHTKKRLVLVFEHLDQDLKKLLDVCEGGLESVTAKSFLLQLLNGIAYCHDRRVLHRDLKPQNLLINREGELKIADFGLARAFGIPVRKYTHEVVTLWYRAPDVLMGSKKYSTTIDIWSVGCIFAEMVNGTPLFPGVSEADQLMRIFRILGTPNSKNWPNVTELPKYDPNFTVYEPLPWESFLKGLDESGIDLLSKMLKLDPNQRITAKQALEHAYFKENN

ABL1(T315I)-P = target: T2, ABL1(T315I)-P (Homo sapiens, UniProt P00519, T315I); assay: KINOMEscan; type: binding; conditions: read-out: % Ctrl
T2 construct: purchased DiscoveRx KINOMEscan

PIK3CA(C420R) = target: T3, PIK3CA(C420R) (Homo sapiens, UniProt P42336, C420R); assay: KINOMEscan; type: binding; conditions: read-out: % Ctrl
T3 construct: purchased DiscoveRx KINOMEscan

GRK1 = target: T4, GRK1 (Homo sapiens, UniProt Q15835); assay: KINOMEscan; type: binding; conditions: read-out: % Ctrl
T4 construct: purchased DiscoveRx KINOMEscan

AKT3 = target: T5, AKT3 (Homo sapiens, UniProt Q9Y243); assay: KINOMEscan; type: binding; conditions: read-out: % Ctrl
T5 construct: purchased DiscoveRx KINOMEscan

GRK3 = target: T6, GRK3 (Homo sapiens, UniProt P35626); assay: KINOMEscan; type: binding; conditions: read-out: % Ctrl
T6 construct: purchased DiscoveRx KINOMEscan

ANKK1 = target: T7, ANKK1 (Homo sapiens, UniProt Q8NFD2); assay: KINOMEscan; type: binding; conditions: read-out: % Ctrl
T7 construct: purchased DiscoveRx KINOMEscan

PIP5K2C = target: T8, PIP5K2C (Homo sapiens, UniProt Q8TBX8); assay: KINOMEscan; type: binding; conditions: read-out: % Ctrl
T8 construct: purchased DiscoveRx KINOMEscan

PLK1 = target: T9, PLK1 (Homo sapiens, UniProt P53350); assay: KINOMEscan; type: binding; conditions: read-out: % Ctrl
T9 construct: purchased DiscoveRx KINOMEscan

IRAK3 = target: T10, IRAK3 (Homo sapiens, UniProt Q9Y616); assay: KINOMEscan; type: binding; conditions: read-out: % Ctrl
T10 construct: purchased DiscoveRx KINOMEscan

CAMK2D = target: T11, CAMK2D (Homo sapiens, UniProt Q13557); assay: KINOMEscan; type: binding; conditions: read-out: % Ctrl
T11 construct: purchased DiscoveRx KINOMEscan

RET = target: T12, RET (Homo sapiens, UniProt P07949); assay: KINOMEscan; type: binding; conditions: read-out: % Ctrl
T12 construct: purchased DiscoveRx KINOMEscan

CAMK4 = target: T13, CAMK4 (Homo sapiens, UniProt Q16566); assay: KINOMEscan; type: binding; conditions: read-out: % Ctrl
T13 construct: purchased DiscoveRx KINOMEscan
T13 sequence (Q16566 whole entry): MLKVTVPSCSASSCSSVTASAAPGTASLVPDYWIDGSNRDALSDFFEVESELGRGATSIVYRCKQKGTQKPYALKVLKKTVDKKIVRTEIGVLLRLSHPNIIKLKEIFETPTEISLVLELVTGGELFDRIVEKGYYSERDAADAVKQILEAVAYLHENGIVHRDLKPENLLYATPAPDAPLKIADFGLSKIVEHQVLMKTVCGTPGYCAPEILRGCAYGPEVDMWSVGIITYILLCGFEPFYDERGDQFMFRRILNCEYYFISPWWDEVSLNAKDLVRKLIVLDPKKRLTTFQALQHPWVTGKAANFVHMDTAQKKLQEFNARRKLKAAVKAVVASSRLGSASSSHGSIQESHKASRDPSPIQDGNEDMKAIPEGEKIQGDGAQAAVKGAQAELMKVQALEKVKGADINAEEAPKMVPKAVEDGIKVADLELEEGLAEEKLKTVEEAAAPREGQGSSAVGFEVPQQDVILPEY

RIOK2 = target: T14, RIOK2 (Homo sapiens, UniProt Q9BVS4); assay: KINOMEscan; type: binding; conditions: read-out: % Ctrl
T14 construct: purchased DiscoveRx KINOMEscan

CDK11 = target: T15, CDK11 (Homo sapiens, UniProt Q9BWU1); assay: KINOMEscan; type: binding; conditions: read-out: % Ctrl
T15 construct: purchased DiscoveRx KINOMEscan
T15 sequence (Q9BWU1 whole entry): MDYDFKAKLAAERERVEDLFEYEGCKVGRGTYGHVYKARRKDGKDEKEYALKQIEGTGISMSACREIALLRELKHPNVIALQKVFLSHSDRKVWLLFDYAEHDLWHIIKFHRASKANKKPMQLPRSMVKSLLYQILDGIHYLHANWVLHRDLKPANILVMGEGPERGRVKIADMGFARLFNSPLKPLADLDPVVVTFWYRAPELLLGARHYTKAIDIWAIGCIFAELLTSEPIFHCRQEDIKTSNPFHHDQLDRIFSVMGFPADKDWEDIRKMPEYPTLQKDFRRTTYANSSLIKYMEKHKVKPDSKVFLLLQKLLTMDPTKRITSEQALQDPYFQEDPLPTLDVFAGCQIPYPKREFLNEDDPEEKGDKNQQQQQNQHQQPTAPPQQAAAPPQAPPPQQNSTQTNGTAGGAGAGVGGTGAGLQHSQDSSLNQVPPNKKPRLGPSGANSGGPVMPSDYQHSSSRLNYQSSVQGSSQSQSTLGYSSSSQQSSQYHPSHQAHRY

CDK8 = target: T16, CDK8 (Homo sapiens, UniProt P49336); assay: KINOMEscan; type: binding; conditions: read-out: % Ctrl
T16 construct: purchased DiscoveRx KINOMEscan

RSK1(KD1-N-t.) = target: T17, RSK1(KD1-N-t.) (Homo sapiens, UniProt Q15418); assay: KINOMEscan; type: binding; conditions: read-out: % Ctrl
T17 construct: RSK1(KD1-N-t.); purchased DiscoveRx KINOMEscan

RSK2(KD1-N-t.) = target: T18, RSK2(KD1-N-t.) (Homo sapiens, UniProt P51812); assay: KINOMEscan; type: binding; conditions: read-out: % Ctrl
T18 construct: RSK2(KD1-N-t.); purchased DiscoveRx KINOMEscan

RSK3(KD2-C-t.) = target: T19, RSK3(KD2-C-t.) (Homo sapiens, UniProt Q15349); assay: KINOMEscan; type: binding; conditions: read-out: % Ctrl
T19 construct: RSK3(KD2-C-t.); purchased DiscoveRx KINOMEscan

MARK1 = target: T20, MARK1 (Homo sapiens, UniProt Q9P0L2); assay: KINOMEscan; type: binding; conditions: read-out: % Ctrl
T20 construct: purchased DiscoveRx KINOMEscan
T20 sequence (Q9P0L2 whole entry): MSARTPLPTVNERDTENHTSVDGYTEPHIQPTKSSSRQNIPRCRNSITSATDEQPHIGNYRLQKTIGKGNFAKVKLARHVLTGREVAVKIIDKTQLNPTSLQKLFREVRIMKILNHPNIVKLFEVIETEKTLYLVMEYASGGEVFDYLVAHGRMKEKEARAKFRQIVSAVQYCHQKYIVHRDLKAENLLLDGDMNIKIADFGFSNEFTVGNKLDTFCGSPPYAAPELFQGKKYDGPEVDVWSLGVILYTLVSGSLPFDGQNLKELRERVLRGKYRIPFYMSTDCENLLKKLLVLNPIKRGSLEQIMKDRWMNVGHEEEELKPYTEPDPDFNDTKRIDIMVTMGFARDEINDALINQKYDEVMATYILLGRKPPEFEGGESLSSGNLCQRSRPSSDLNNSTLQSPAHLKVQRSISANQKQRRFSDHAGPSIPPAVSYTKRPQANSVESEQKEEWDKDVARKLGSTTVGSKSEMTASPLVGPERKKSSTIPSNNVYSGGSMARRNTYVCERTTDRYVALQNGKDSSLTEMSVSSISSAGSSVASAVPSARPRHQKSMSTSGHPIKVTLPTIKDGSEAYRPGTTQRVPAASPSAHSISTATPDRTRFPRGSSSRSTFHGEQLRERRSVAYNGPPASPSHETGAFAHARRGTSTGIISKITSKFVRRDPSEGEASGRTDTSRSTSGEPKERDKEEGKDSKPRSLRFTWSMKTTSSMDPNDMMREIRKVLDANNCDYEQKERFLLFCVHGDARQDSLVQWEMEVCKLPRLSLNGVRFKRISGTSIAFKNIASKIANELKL

CSNK1A1L = target: T21, CSNK1A1L (Homo sapiens, UniProt Q8N752); assay: KINOMEscan; type: binding; conditions: read-out: % Ctrl
T21 construct: purchased DiscoveRx KINOMEscan

MEK2 = target: T22, MEK2 (Homo sapiens, UniProt P36507); assay: KINOMEscan; type: binding; conditions: read-out: % Ctrl
T22 construct: purchased DiscoveRx KINOMEscan

CSNK2A1 = target: T23, CSNK2A1 (Homo sapiens, UniProt P68400); assay: KINOMEscan; type: binding; conditions: read-out: % Ctrl
T23 construct: purchased DiscoveRx KINOMEscan

SYK = target: T24, SYK (Homo sapiens, UniProt P43405); assay: KINOMEscan; type: binding; conditions: read-out: % Ctrl
T24 construct: purchased DiscoveRx KINOMEscan

MKNK1 = target: T25, MKNK1 (Homo sapiens, UniProt Q9BUB5); assay: KINOMEscan; type: binding; conditions: read-out: % Ctrl
T25 construct: purchased DiscoveRx KINOMEscan

TBK1 = target: T26, TBK1 (Homo sapiens, UniProt Q9UHD2); assay: KINOMEscan; type: binding; conditions: read-out: % Ctrl
T26 construct: purchased DiscoveRx KINOMEscan

TLK1 = target: T27, TLK1 (Homo sapiens, UniProt Q9UKI8); assay: KINOMEscan; type: binding; conditions: read-out: % Ctrl
T27 construct: purchased DiscoveRx KINOMEscan

NEK1 = target: T28, NEK1 (Homo sapiens, UniProt Q96PY6); assay: KINOMEscan; type: binding; conditions: read-out: % Ctrl
T28 construct: purchased DiscoveRx KINOMEscan
T28 sequence (Q96PY6 whole entry): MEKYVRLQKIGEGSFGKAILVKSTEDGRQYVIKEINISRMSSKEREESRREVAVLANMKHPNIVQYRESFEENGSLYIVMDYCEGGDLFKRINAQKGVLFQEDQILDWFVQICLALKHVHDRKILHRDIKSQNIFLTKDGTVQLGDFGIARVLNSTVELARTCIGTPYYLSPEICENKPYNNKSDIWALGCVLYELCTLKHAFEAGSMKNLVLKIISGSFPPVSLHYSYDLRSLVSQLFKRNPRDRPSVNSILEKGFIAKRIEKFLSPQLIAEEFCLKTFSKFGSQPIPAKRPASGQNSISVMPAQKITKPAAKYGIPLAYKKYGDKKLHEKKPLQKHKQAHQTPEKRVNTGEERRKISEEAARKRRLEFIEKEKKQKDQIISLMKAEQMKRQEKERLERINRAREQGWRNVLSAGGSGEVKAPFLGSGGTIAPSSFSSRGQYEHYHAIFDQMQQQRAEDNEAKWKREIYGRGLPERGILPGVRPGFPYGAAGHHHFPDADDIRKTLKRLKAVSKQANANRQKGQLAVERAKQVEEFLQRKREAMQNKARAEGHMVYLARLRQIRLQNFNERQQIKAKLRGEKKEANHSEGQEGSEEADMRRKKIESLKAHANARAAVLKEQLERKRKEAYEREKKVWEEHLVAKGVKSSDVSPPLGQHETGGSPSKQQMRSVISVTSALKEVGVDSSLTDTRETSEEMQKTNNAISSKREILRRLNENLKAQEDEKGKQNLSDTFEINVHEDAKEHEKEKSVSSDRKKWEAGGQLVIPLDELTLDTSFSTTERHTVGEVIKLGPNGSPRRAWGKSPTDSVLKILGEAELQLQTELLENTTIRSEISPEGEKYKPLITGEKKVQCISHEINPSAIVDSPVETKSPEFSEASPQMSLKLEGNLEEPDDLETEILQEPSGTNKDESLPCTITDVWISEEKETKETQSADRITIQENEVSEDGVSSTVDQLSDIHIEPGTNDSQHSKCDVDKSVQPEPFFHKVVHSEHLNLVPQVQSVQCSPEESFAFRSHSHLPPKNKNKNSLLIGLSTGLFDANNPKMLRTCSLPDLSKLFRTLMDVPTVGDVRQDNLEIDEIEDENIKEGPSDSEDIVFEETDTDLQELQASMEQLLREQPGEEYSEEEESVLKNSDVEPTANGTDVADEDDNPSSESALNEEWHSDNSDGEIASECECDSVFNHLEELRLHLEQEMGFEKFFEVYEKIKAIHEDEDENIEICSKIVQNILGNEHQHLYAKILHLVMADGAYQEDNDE

TSSK3 = target: T29, TSSK3 (Homo sapiens, UniProt Q96PN8); assay: KINOMEscan; type: binding; conditions: read-out: % Ctrl
T29 construct: purchased DiscoveRx KINOMEscan

NIM1 = target: T30, NIM1 (Homo sapiens, UniProt Q8IY84); assay: KINOMEscan; type: binding; conditions: read-out: % Ctrl
T30 construct: purchased DiscoveRx KINOMEscan
T30 sequence (Q8IY84 whole entry): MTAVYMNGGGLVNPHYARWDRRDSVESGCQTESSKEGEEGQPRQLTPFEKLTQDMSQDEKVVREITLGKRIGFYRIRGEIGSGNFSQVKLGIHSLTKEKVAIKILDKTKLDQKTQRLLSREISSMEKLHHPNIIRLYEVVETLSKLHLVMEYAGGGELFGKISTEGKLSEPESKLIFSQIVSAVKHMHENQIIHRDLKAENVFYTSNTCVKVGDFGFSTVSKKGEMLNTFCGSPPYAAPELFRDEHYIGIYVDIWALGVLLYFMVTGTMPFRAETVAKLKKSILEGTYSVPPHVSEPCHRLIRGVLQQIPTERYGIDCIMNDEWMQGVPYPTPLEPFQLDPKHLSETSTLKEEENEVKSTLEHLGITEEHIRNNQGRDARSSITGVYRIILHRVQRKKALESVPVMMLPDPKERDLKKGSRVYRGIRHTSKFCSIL

OSR1 = target: T31, OSR1 (Homo sapiens, UniProt O95747); assay: KINOMEscan; type: binding; conditions: read-out: % Ctrl
T31 construct: purchased DiscoveRx KINOMEscan

ERBB4 = target: T32, ERBB4 (Homo sapiens, UniProt Q15303); assay: KINOMEscan; type: binding; conditions: read-out: % Ctrl
T32 construct: purchased DiscoveRx KINOMEscan

ERK1 = target: T33, ERK1 (Homo sapiens, UniProt P27361); assay: KINOMEscan; type: binding; conditions: read-out: % Ctrl
T33 construct: purchased DiscoveRx KINOMEscan

ERK3 = target: T34, ERK3 (Homo sapiens, UniProt Q16659); assay: KINOMEscan; type: binding; conditions: read-out: % Ctrl
T34 construct: purchased DiscoveRx KINOMEscan
T34 sequence (Q16659 whole entry): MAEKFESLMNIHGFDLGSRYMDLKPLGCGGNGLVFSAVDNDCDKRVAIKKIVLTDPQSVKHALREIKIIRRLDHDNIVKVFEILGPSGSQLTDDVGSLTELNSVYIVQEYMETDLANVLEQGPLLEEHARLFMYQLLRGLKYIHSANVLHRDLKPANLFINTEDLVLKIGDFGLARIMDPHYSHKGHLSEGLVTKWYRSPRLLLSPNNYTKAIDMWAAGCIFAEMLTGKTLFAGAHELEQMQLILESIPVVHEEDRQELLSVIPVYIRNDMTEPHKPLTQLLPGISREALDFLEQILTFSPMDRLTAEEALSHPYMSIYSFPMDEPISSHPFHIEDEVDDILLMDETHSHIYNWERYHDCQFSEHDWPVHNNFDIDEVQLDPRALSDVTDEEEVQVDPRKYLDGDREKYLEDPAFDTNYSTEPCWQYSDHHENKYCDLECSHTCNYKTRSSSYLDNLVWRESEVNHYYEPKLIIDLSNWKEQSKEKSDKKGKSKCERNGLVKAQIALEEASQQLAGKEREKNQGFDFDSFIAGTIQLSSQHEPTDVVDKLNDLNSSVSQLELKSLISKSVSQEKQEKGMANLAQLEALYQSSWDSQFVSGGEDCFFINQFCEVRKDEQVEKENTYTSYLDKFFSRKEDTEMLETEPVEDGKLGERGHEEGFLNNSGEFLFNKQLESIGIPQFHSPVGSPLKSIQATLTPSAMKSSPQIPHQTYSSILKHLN

PCTK2 = target: T35, PCTK2 (Homo sapiens, UniProt Q00537); assay: KINOMEscan; type: binding; conditions: read-out: % Ctrl
T35 construct: purchased DiscoveRx KINOMEscan

PIM1 = PIM1 (Homo sapiens, UniProt P11309); assay: KINOMEscan; type: binding; parameters: purchased DiscoveRx KINOMEscan; conditions: read-out: % Ctrl
Chain of PIM1 (P11309 whole entry): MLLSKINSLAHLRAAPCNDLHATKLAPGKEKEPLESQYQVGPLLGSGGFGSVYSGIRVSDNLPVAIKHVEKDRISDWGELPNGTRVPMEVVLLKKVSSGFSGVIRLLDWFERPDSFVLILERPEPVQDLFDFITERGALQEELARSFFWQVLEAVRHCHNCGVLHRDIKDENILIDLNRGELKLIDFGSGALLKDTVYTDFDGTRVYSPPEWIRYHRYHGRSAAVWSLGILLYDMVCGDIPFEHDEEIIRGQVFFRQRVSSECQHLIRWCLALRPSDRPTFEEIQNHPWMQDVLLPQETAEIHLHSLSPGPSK

CN1CCC(CNc2ccc3ncc(C(=O)Nc4cccc(OC(F)(F)F)c4)n3n2)CC1 [Cpd 2]
levels in plasma (Pharmacokinetic study; after intravenous administration): low levels in plasma
clearance (Pharmacokinetic study; intravenous administration): > 100 % hepatic blood flow
remaining binding at 1 µM (PFPK5(P.falciparum)): 97%
remaining binding at 1 µM (ABL1(T315I)-P): 100%
remaining binding at 1 µM (PIK3CA(C420R)): 100%
remaining binding at 1 µM (GRK1): 86%
remaining binding at 1 µM (AKT3): 100%
remaining binding at 1 µM (GRK3): 76%
remaining binding at 1 µM (ANKK1): 94%
remaining binding at 1 µM (PIP5K2C): 58%
remaining binding at 1 µM (PLK1): 98%
remaining binding at 1 µM (IRAK3): 100%
remaining binding at 1 µM (CAMK2D): 99%
remaining binding at 1 µM (RET): 88%
remaining binding at 1 µM (CAMK4): 100%
remaining binding at 1 µM (RIOK2): 99%
remaining binding at 1 µM (CDK11): 97%
remaining binding at 1 µM (CDK8): 58%
remaining binding at 1 µM (RSK1(KD1-N-t.)): 97%
remaining binding at 1 µM (RSK2(KD1-N-t.)): 89%
remaining binding at 1 µM (RSK3(KD2-C-t.)): 74%
remaining binding at 1 µM (MARK1): 100%
remaining binding at 1 µM (CSNK1A1L): 95%
remaining binding at 1 µM (MEK2): 90%
remaining binding at 1 µM (CSNK2A1): 98%
remaining binding at 1 µM (SYK): 94%
remaining binding at 1 µM (MKNK1): 86%
remaining binding at 1 µM (TBK1): 100%
remaining binding at 1 µM (TLK1): 98%
remaining binding at 1 µM (NEK1): 99%
remaining binding at 1 µM (TSSK3): 95%
remaining binding at 1 µM (NIM1): 78%
remaining binding at 1 µM (OSR1): 100%
remaining binding at 1 µM (ERBB4): 100%
remaining binding at 1 µM (ERK1): 100%
remaining binding at 1 µM (ERK3): 100%
remaining binding at 1 µM (PCTK2): 100%
remaining binding at 1 µM (PIM1): 5%
